Assay results from PubChem BioAssay (NCI).
Where “and” joins values, the source holds several entries; their conditions need not be identical. Equal values may be shown once.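 Grown in 96-well plates, cells were treated for 48 hours with each compound at five concentrations. Insufficient inhibition: endpoint recorded as highest concentration tested. At the GI50, growth is halved. Definition used: TGI = concentration required for complete inhibition of growth.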

Columns and labels:
Test in all cases: NCI-60 cell line screen, 48 h
UACC-257 melanoma = tested on: UACC-257 melanoma
SW-620 colon = tested on: SW-620 colon
K-562 leukemia = tested on: K-562 leukemia
786-0 renal = tested on: 786-0 renal
NCI-H226 lung = tested on: NCI-H226 lung
OVCAR-8 ovarian = tested on: OVCAR-8 ovarian
RPMI-8226 leukemia = tested on: RPMI-8226 leukemia
NCI-H522 lung = tested on: NCI-H522 lung
MALME-3M melanoma = tested on: MALME-3M melanoma
HS 578T breast = tested on: HS 578T breast

Compound | GI50 (UACC-257 melanoma) | TGI (UACC-257 melanoma) | GI50 (SW-620 colon) | TGI (SW-620 colon) | GI50 (K-562 leukemia) | TGI (K-562 leukemia) [µM] | GI50 (786-0 renal) [µM] | TGI (786-0 renal) | GI50 (NCI-H226 lung) [µM] | TGI (NCI-H226 lung) | GI50 (OVCAR-8 ovarian) | TGI (OVCAR-8 ovarian) | GI50 (RPMI-8226 leukemia) [µM] | TGI (RPMI-8226 leukemia) | GI50 (NCI-H522 lung) [µM] | TGI (NCI-H522 lung) | GI50 (MALME-3M melanoma) | TGI (MALME-3M melanoma) | GI50 (HS 578T breast) | TGI (HS 578T breast)
O=C(N/N=C/c1ccc(Cl)cc1Cl)c1ccc2nc(-c3ccc(Cl)cc3)[nH]c2c1 | 2.14 µM | 4.72 µM | 1.83 µM | 3.69 µM | 0.969 µM | 3.23 | 1.79 | 3.48 µM | 1.77 | 3.48 µM | 2.11 µM | 4.74 µM | 1.16 | 3.51 µM | 2.24 | 5.85 µM | 1.55 µM | 3.15 µM | 2.28 µM | 5.27 µM
Clc1cc(-c2ccccc2)nc2ccccc12 | – | > 100 µM | – | > 100 µM | – | > 100 | – | > 100 µM | – | 92.9 µM | – | > 100 µM | – | 59 µM | – | 34 µM | – | > 100 µM | – | > 100 µM
Clc1ccc(CNc2nccc(-c3cnn4ncccc34)n2)cc1 | 6.43 µM | 16.5 µM | 8.42 µM | > 25 µM | 10.6 µM | > 25 | 9.19 | 24.4 µM | 7.79 | > 25 µM | 6.63 µM | > 25 µM | 5.8 | 20 µM | 5.85 | 19.3 µM | 8.94 µM | 23.3 µM | 7.78 µM | > 23.5 µM
O=C1c2ccccc2-c2c1c1ccc([N+](=O)[O-])cc1c(=O)n2CCCNCCO | 3.37 µM | 9.39 µM | 0.0594 µM | 1.77 µM | 0.0359 µM | 1.24 | 0.0479 | 0.43 µM | 1.01 | 3.65 µM | 0.225 µM | 3.64 µM | 0.0359 | 0.239 µM | 0.154 | 1.91 µM | 0.341 µM | 1.62 µM | 1.11 µM | 4.39 µM
N#C/C(=C\c1c(-c2ccccc2)[nH]c2ccccc12)C(=O)c1ccccc1 | 10.9 µM | > 100 µM | 2.97 µM | > 100 µM | > 100 µM | > 100 | 16.5 | > 100 µM | 6.83 | > 100 µM | 21.7 µM | > 100 µM | 2.43 | 7.98 µM | 3.98 | 32.9 µM | 12.3 µM | > 100 µM | 6.26 µM | 40.5 µM
Cc1nc2c(N3CCCC3)nc(N3CCNCC3)nc2nc1NCc1ccccc1 | 7.15 µM | 12.9 µM and 3.64 µM | 5.9 µM | 12.5 µM and 7.27 µM | 1.06 µM | 23.8 | 1.62 | 10.5 µM and 3.18 µM | 7.54 | 16.1 µM and 28.4 µM | 5.73 µM | 11 µM and 14.5 µM | 4.08 | 10.2 µM and 4.84 µM | 0.869 | 4.56 µM and 4.21 µM | 7.17 µM | 14.5 µM and 4.23 µM | 7.4 µM | 17 µM and 18.7 µM
Nc1nccc2c1ncn2C1OC(CO)C(O)C1O (configuration not stated) | > 100 µM | > 100 µM | 92.4 µM | > 100 µM | > 100 µM | > 100 | > 100 | > 100 µM | > 100 | > 100 µM | 91.5 µM | > 100 µM | > 100 | > 100 µM | > 100 | > 100 µM | > 100 µM | > 100 µM | > 100 µM | > 100 µM
Cc1ncc(C(=O)Nc2ccc(CN3CCN(C)CC3)c(C(F)(F)F)c2)cc1C#Cc1c(N)ncc2ccccc12 | 0.477 µM | 1.06 µM | 0.227 µM | 0.754 µM | 0.00332 µM | 0.453 | 0.568 | 1.05 µM | 0.393 | 1.04 µM | 0.566 µM | 1.28 µM | 0.396 | 1.26 µM | 0.46 | 0.992 µM | 0.102 µM | 0.475 µM | 0.356 µM | 1.26 µM
FC(F)(F)c1cccc2c(SCCc3n[nH]c(=S)o3)ccnc12 | 33.3 µM | 89 µM | > 100 µM | > 100 µM | 47.4 µM | > 100 | > 100 | > 100 µM | 37.1 | > 100 µM | 36.5 µM | > 100 µM | 30.3 | > 100 µM | 22.6 | 90 µM | 44.5 µM | > 100 µM | 30.1 µM | > 100 µM
Nc1ccc(C(OC(=O)c2cc3ccccc3c(Cc3c(O)c(C(=O)OC(c4ccc(N)cc4)(c4ccc(N)cc4)c4ccc(N)cc4)cc4ccccc34)c2O)(c2ccc(N)cc2)c2ccc(N)cc2)cc1 | 0.426 µM | 5.96 µM | 1.14 µM | 13.9 µM | 0.682 µM | > 100 | 1.76 | 20.2 µM | 1.76 | 15.7 µM | 0.388 µM | 36.6 µM | 0.476 | > 100 µM | 0.588 | 12.4 µM | 1.94 µM | 20.1 µM | 0.201 µM | 0.867 µM
O=C(COc1cccc(/C=C2\Oc3ccc4ccccc4c3C2=O)c1)c1ccc(Cl)cc1 | > 100 µM | > 100 µM | 11.7 µM | 88.3 µM | 10.8 µM | 25.5 | 4.54 | 19 µM | 70.6 | > 100 µM | 15.4 µM | 41.9 µM | 1.66 | 6.62 µM | 6.3 | 23.2 µM | 22.4 µM | > 100 µM | 50 µM | > 100 µM
CSc1ccc(SC2c3ccc(C)cc3Oc3nc(N)c(C#N)c(N)c32)cc1 (configuration not stated) | 1.81 µM | 3.24 µM | 2.03 µM | 4.28 µM | 2.96 µM | 9.91 | 1.68 | 3.07 µM | 1.81 | 3.27 µM | 1.79 µM | 3.18 µM | 2.43 | 6.96 µM | 1.7 | 3.13 µM | 1.54 µM | 3.01 µM | 2.19 µM | 5.53 µM
COc1ccc(Cn2cc3c(c2-c2cc(OC)c(OC)c(OC)c2)CCc2cnoc2-3)cc1N | > 23.1 µM | > 100 µM | 0.038 µM | > 100 µM | 0.0351 µM | > 100 | 0.0599 | > 23.2 µM | 0.537 | > 100 µM | 0.0702 µM | > 100 µM | 0.0489 | – | 0.018 | 0.058 µM | 0.0382 µM | > 100 µM | 0.0343 µM | > 100 µM
CN(CC(=O)O)Cc1oc(CO)cc(=O)c1O | – | > 100 µM | – | > 100 µM | – | > 100 | – | > 100 µM | – | > 100 µM | – | > 100 µM | – | > 100 µM | – | > 100 µM | – | > 100 µM | – | > 100 µM
Cn1cnc2c(F)c(Nc3ccc(Br)cc3F)c(C(=O)NOCCO)cc21 | 0.0224 µM and 0.024 µM | 0.253 µM and 0.148 µM | 0.029 µM and 0.0449 µM | > 100 µM | 1.33 µM and 10.8 µM | > 100 | > 100 | > 100 µM | – | > 100 µM | > 2.17 µM and 99.7 µM | > 100 µM | > 56.4 | > 100 µM | > 63.2 | > 100 µM | 0.0136 µM and < 0.01 µM | 0.138 µM and 0.0486 µM | > 2.14 µM and 33.6 µM | > 100 µM
COc1cc(NC(=O)NCc2ccco2)ccc1-c1ccc(NC(=O)NCc2ccco2)cc1OC | 2.72 µM | > 100 µM | 6.15 µM | > 100 µM | 0.773 µM | > 100 | 2.35 | 11.4 µM | 1.46 | 7.92 µM | 1.88 µM | 11.7 µM | > 100 | > 100 µM | 2 | 5.33 µM | 1.65 µM | 5.56 µM | 1.51 µM | 6.86 µM
COC(=O)[C@]12CC[C@@H](C)[C@H](C)[C@@H]1C1=CC[C@@H]3[C@@]4(C)C(C=O)=C[C@@](C)(COS(C)(=O)=O)C4[C@H](O)C[C@@]3(C)[C@]1(C)CC2 (some centres not stated) | 1.85 µM | 3.65 µM | 2.36 µM | 5.7 µM | 0.797 µM | 6.28 | 1.79 | 3.58 µM | 2.88 | 7.31 µM | 2.08 µM | 5.71 µM | 0.342 | 1.99 µM | 1.21 | 2.91 µM | 1.65 µM | 3.39 µM | 3.12 µM | 8.77 µM
Cc1ccc2nc(-c3ccc(N)c4ccccc34)[nH]c2c1 | 9.5 µM | 34.5 µM | – | 27.5 µM | 0.763 µM | 39.7 | 0.161 | 20.9 µM | 0.751 | 32.1 µM | 1.31 µM | 16.9 µM | 0.0298 | 0.934 µM | 0.0958 | 1.3 µM | 5.85 µM | 27.3 µM | 0.263 µM | 32.4 µM
OCC(CCc1c[nH]c2ccccc12)c1c[nH]c2ccccc12 (configuration not stated) | – | 24.7 µM | – | 29.4 µM | – | 67.6 | – | 29.5 µM | – | 36.7 µM | – | 46.6 µM | – | 73.5 µM | – | 29.4 µM | – | 32.2 µM | – | 48.6 µM
